Activity calls are given as the source filed them. Rule as the data show it: actives have a measured IC50 and inactives only a lower limit.
target: Envelope glycoprotein gp160 (Human immunodeficiency virus 1, UniProt Q6QLK5); assay: cell-free HIV fusion peptide-binding blockers – biochemical, uHTS, fluorescence dequenching, […] (AID 1986)
Sequence (Q6QLK5 whole entry, the tested form may be a part): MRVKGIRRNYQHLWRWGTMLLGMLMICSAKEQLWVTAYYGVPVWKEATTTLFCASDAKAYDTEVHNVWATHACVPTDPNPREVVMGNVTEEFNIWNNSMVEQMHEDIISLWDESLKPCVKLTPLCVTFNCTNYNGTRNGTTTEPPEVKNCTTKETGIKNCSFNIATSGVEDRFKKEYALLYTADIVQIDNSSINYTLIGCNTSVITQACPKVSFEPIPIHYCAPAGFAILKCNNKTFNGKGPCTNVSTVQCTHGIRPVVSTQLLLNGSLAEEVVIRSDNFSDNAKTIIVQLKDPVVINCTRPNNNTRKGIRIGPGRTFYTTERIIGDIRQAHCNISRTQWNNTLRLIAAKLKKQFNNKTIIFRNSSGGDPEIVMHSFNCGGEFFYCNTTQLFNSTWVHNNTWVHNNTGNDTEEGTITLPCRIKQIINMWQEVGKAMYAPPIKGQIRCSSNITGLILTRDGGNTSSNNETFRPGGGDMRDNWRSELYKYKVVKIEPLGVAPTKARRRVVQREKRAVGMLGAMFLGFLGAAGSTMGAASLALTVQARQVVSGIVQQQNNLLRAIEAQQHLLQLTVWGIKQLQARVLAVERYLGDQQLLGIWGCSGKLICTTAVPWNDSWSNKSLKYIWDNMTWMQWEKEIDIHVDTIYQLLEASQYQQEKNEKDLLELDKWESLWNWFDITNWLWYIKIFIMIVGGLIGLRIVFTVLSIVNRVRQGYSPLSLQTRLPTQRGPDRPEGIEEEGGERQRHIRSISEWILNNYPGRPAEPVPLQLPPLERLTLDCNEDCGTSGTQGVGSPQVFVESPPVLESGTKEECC

SMILES	IC50
COc1ccccc1NS(=O)(=O)c1cccc(N2C(=O)/C(=C\Nc3ccccc3C(=O)O)c3ccccc3C2=O)c1	13.1 µM (active)
COc1cc(/C=C2\C(=N)N3N=C(S(C)(=O)=O)SC3=NC2=O)ccc1OCCOc1ccccc1C	13.7 µM (active)
CSc1nnc(-c2ccccc2/N=C/c2c(C)nn(-c3ccc4ccccc4c3)c2O)c(O)n1	25.8 µM (active)
